The values below come from ChEMBL document CHEMBL1201862, “PubChem BioAssay data set” (2004).

Some test systems named below: DMS-273; KM-20L2; HOP-18; DLD-1; LXFL 529; XF498; SNB-78; MDA-N; RXF 631.
Common to all, as to assay: growth of human tumour cells (NCI), 48 h

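Step 1: Grow cells in 96-well plates. Step 2: Expose to compound for 48 hours at 5 concentrations. Step 3: Interpolate endpoints linearly; if unreached, use highest concentration. GI50: concentration for 50% inhibition of growth.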 Calls of active or inactive are those of the source. No stated cut-off is given here; in the data, active = GI50 up to about 1.1 µM and inactive = higher. Where a SMILES comes first, the peptide text is derived from it. [ ]: non-standard residue; d: D form. The star is where a group is joined. ξ: configuration not given here. X38 = O=C(OCc1ccccc1)[C@@H]1CCC[C@H]1N*; Fmoc = O=C(OCC1c2ccccc2-c2ccccc21)*; ξW = NC(Cc1c[nH]c2ccccc12)C(=O)O; ξNMe2Val = CC(C)C(C(=O)*)N(C)C; NMeV = CN[CH](C(=O)O)C(C)C; ξF = NC(Cc1ccccc1)C(=O)O; Boc = CC(C)(C)OC(=O)*; NHBn = c1ccc(CN*)cc1; ξK = NCCCCC(N)C(=O)O; ξT = CC(O)C(N)C(=O)O; tBu = CC(C)(C)*; CH2Cl = ClC*

Regarding `O=c1/c(=C/c2ccccc2[N+](=O)[O-])sc2nnc(-c3ccco3)n12`, the GI50 is 28.7 µM (inactive) with DMS-273; 91 µM (inactive) in the test on KM-20L2; 25.1 µM (inactive) with HOP-18; 29.2 µM (inactive) with DLD-1; 19 µM (inactive) in the test with LXFL 529; 18.4 µM (inactive) in the test with XF498. Moreover, the GI50 in the test on SNB-78 was 25.7 µM (inactive).

For the molecule `O=c1oc2ccccc2cc1/C=N/N1C(=S)N(c2ccccc2)C(=N\c2ccccc2)/C1=N/c1ccccc1`, the GI50 with MDA-N is 20.5 µM (inactive).

As for `CCOC(=O)Nc1sc2c(c1C#N)CC(C)CC2` (configuration not stated), in the test with MDA-N, the GI50 is 1.6 µM (inactive).

For `Clc1ncnc2c1nc(C#Cc1ccccc1)n2C1CCCCO1` (configuration not stated), in the test with MDA-N, the GI50 is 1.94 µM (inactive).

In the case of `COc1nc(C(=O)O)c(Cl)c(OC)c1Cl`, the GI50 with KM-20L2 and with DLD-1 was > 100 µM (inactive) each time.

Take `COC(=O)c1ccccc1C1CN=NC12Cc1c(C)ccc(C)c1C2=O` (configuration not stated): in the test on MDA-N, the GI50 is > 100 µM (inactive).

Turning to `COc1ccc(C)cc1-c1ccc(-c2cc(C)ccc2OC)o1`, the GI50 with RXF 631, in the test with DMS-273, in the test on KM-20L2, with DLD-1, with LXFL 529 and with SNB-78 was > 100 µM (inactive) in each case.

With `C=C(Cl)C(Br)(CBr)CCC(Br)C(C)(C)Br` (configuration not stated), in the test on MDA-N, the GI50 is 7.57 µM (inactive).

`O=C1N=C(S)NNC12c1ccccc1-c1ccccc12`: in the test with MDA-N, the GI50 is > 10 µM (inactive).

For `CCOC(=O)C(=O)Nc1ccccc1OCC`, the GI50 in the test on HOP-18, in the test on DLD-1, in the test with LXFL 529, in the test on XF498 and with SNB-78 was > 100 µM (inactive) each time.

In the case of `COc1cc2c(c(OC)c1OC)C(=O)c1c(O)cc(C)c(OC)c1C2=O`, the GI50 in the test with MDA-N is > 100 µM (inactive).

Turning to `COc1cc(C2c3cc4c(cc3OC(NN)C2C)OCO4)cc(OC)c1OC` (configuration not stated), the GI50 with MDA-N is 0.123 µM (active).

For `CC(=O)NC1=C(NCCO)C(=O)c2ccccc2C1=O`, the GI50 in the test on DMS-273 is > 50 µM (inactive); in the test with KM-20L2 it was 24.2 µM (inactive); in the test with DLD-1, > 50 µM (inactive); in the test on LXFL 529, > 50 µM (inactive); in the test on XF498, > 50 µM (inactive); with SNB-78, > 50 µM (inactive).

For the molecule `CC1SC2=NC3=C(c4ccccc4C3=O)C(c3ccc(Cl)cc3)N2C1=O` (configuration not stated), the GI50 in the test on RXF 631, with DMS-273, in the test on KM-20L2, in the test on DLD-1, with LXFL 529 and with XF498 was > 100 µM (inactive) each time.

As to `CC(=O)OCC1OC(n2ccc(=O)[nH]c2=O)C(OC(C)=O)C(OC(C)=O)C1OC(C)=O` (configuration not stated), the GI50 in the test with DMS-273, in the test on KM-20L2, in the test on HOP-18, in the test on DLD-1, in the test with LXFL 529 and with XF498 was > 100 µM (inactive) in each case.

With `COc1ccc(/C=C/C(=O)c2sc(NC(=S)NC(=O)c3ccccc3F)nc2C)cc1OC`, the GI50 in the test on DMS-273 is > 100 µM (inactive); with KM-20L2, > 100 µM (inactive); with HOP-18, 22.8 µM (inactive); in the test on DLD-1, > 100 µM (inactive); in the test with SNB-78, > 100 µM (inactive).

As for `Clc1cccc(Cl)c1C1SCc2nc3cc4ccccc4cc3n21` (configuration not stated), the GI50 with MDA-N is > 100 µM (inactive).

For `COC(=O)c1ccccc1C1CN=NC12Cc1c(ccc(C)c1C)C2=O` (configuration not stated), in the test on MDA-N, the GI50 is > 100 µM (inactive).

Take `O=S(=O)(O)c1ccc2c(/N=N/c3cccc4ccccc34)c(O)ccc2c1`: in the test with MDA-N, the GI50 was > 100 µM (inactive).

With `C=C[C@H]1C=Cc2c(OC)cccc2[C@@H]1COP1(=S)NC(C)C(c2ccccc2)O1` (some centres not stated), the GI50 was 57.9 µM (inactive) with DMS-273; > 100 µM (inactive) in the test on KM-20L2; > 100 µM (inactive) with HOP-18; > 100 µM (inactive) with DLD-1; 48.5 µM (inactive) in the test on LXFL 529; > 100 µM (inactive) in the test on XF498. Further, in the test on SNB-78, the GI50 was > 100 µM (inactive).

Regarding `CN(C)CCCc1c[nH]c2ccccc12`, the GI50 in the test on MDA-N is > 100 µM (inactive).

As to `Brc1cccc(/N=N/N2CCCC2)c1`, the GI50 with MDA-N was > 100 µM (inactive).

For the molecule `CC(=O)NC(CC(C)C)C(=O)NC(Cc1ccccc1)C(=O)CCl` (stereo not drawn) (Ac-Leu-Phe-CH2Cl; configuration not given here), the GI50 with MDA-N was 9.68 µM (inactive).

For `CC(OC(C)(C)C)C(NC(=O)C(CCCCNC(=O)OC(C)(C)C)NC(=O)C(Cc1c[nH]c2ccccc12)NC(=O)C(Cc1ccccc1)NC(=O)OCC1c2ccccc2-c2ccccc21)C(=O)NC(Cc1ccccc1)C(=O)N[C@@H]1CCC[C@H]1C(=O)OCc1ccccc1` (some centres not stated) (Fmoc-[ξF][ξW][ξK](Boc)[ξT](tBu)[ξF]-X38), in the test with MDA-N, the GI50 was > 100 µM (inactive).

Consider `CC(C)C(NC(=O)C(C(C)C)N(C)C)C(=O)N(C)C(C(=O)N1CCCC1C(=O)N1CCCC1C(=O)NCc1ccccc1)C(C)C` (configuration not stated) (ξNMe2Val-V[NMeV]PP-NHBn; configuration not given here), for which, in the test with MDA-N, the GI50 was < 0.0001 µM (active).

`CC(C)=CCC/C(C)=C/CO` [GERANIOL]: in the test on MDA-N, the GI50 is > 100 µM (inactive).
